Reference: patent US7307077B2, “Heterocyclic compound and antitumor agent containing the same as effective ingredient” (Zenyaku Kogyo Kabushiki Kaisha, priority 2001, dated 2007)
Blank lines part the entries; values can stand above or below the compound they belong to.

What was measured:
Human colon cancer WiDr = assay: Test 2: human colon cancer WiDr subcutaneous tumor in nude mice; format: in vivo, mutant BALA/c nude mice; conditions: intraperitoneally 200 mg/kg, once a day, six times a week, for two weeks
Experimental: Human colon cancer WiDr was grown as subcutaneous tumor in mutant BALA/c nude mice. 2-mm-cube tumor fragments were transplanted subcutaneously into left flank of the nude mice. When the tumor reached logarithmic growth phase, mice were divided randomly into test groups consisting five mice per group. The samples prepared by dissolving test compounds in physiological saline solution or suspending them in 1% hydroxypropyl cellulose (HPC), using an agate mortar, were intraperitoneally administered at a rate of 200 mg/kg, once a day and six times a week in total, for two weeks. Major and minor axes of the tumor mass were measured on a daily basis to calculate tumor volume. The tumor volume at each measured day was divided by that at the start day of the sample administration to calculate relative tumor growth rate; and the relative tumor growth rate of the treated groups (T) and that of the control group (C) were used to calculate T/C (%).

MCF-7 cells = assay: Test 1: growth inhibition of MCF-7 human breast cancer cells; format: cell-based; conditions: Homo sapiens, MCF7, 72 hours culture with sample, read-out: GI50 (50% growth inhibition concentration)
Experimental: Used in the test were MCF-7 cells which were established from human breast cancer and were cultured routinely under the conditions of 37° C. and 5% CO2, in MEM medium supplemented with 10% fetal calf serum, 25 mM of HEPES and 0.1 mg/ml of kanamycin. The MCF-7 cells in a logarithmic growth phase were treated with trypsin/EDTA to prepare single cell suspension adjusted to 4.0×10^4 cells/ml in MEM medium (supplemented with 10% fetal calf serum, 25 mM of HEPES and 0.1 mg/ml of kanamycin). Test compounds were dissolved in DMSO and diluted with RPMI 1640 medium (supplemented with 10% fetal calf serum, 25 mM of HEPES and 0.1 mg/ml of kanamycin) to a concentration of 2.0×10^−4-2.0×10^−9 M.
The cell suspension was filled in a 96-wells microplate at a rate of 0.1 ml per well and was cultured for 24 hours so as to make the cells adhered to the microplate. Then, it was added with 0.1 ml of the sample solution and cultured at 37° C. for 72 hours in 5% CO2.
50% Growth inhibition concentrations (GI50 μM) were calculated from growth inhibitions at various sample concentrations.

Compound: C[C@@H]1OCCN(c2nc(N3CCOCC3)nc(-n3c(C(F)F)nc4ccc(N)cc43)n2)[C@@H]1C (relative stereo) [compound 33, 2-(6-amino-2-difluoromethylbenzimidazol-1-yl)-4-(2,3-cis-dimethylmorpholino)-6-morpholino-1,3,5-triazine]
judgment (T/C (%) of relative tumor growth rate, last day) (Human colon cancer WiDr): + (Cases where T/C (%) of the last day was less than 50% and U-assay of Mann-Whitney revealed significant difference with one-sided risk rate of 1% were judged to be effective (+))
melting point: 220 to 222 °C (dec.)
GI50 (MCF-7 cells): 80 nM

Compound: CC(=O)Nc1nc2ccccc2n1-c1nc(N2CCOCC2)nc(N2CCOCC2)n1 [compound 22, 2-(2-acetylaminobenzimidazol-1-yl)-4,6-dimorpholino-1,3,5-triazine]
judgment (T/C (%) of relative tumor growth rate, last day) (Human colon cancer WiDr): + (Cases where T/C (%) of the last day was less than 50% and U-assay of Mann-Whitney revealed significant difference with one-sided risk rate of 1% were judged to be effective (+))
melting point: 243 to 245 °C
GI50 (MCF-7 cells): 230 nM

Compound: FC(F)c1nc2ccccc2n1-c1nc(N2CCOCC2)nc(N2CCOCC2)n1 [compound 19, 2-(2-difluoromethylbenzimidazol-1-yl)-4,6-dimorpholino-1,3,5-triazine]
judgment (T/C (%) of relative tumor growth rate, last day) (Human colon cancer WiDr): + (Cases where T/C (%) of the last day was less than 50% and U-assay of Mann-Whitney revealed significant difference with one-sided risk rate of 1% were judged to be effective (+))
GI50 (MCF-7 cells): 90 nM

Compound: Nc1ccc2nc(C(F)F)n(-c3nc(N4CCOCC4)cc(N4CCOCC4)n3)c2c1 [compound 35, 2-(6-amino-2-difluoromethylbenzimidazol-1-yl)-4,6-dimorpholinopyrimidine]
melting point: 218 to 219 °C (dec.)
GI50 (MCF-7 cells): 140 nM

Compound: C[C@@H]1OCCN(c2cc(N3CCOCC3)nc(-n3c(CF)nc4ccccc43)n2)[C@@H]1C (relative stereo) [compound 9, 4-(cis-2,3-dimethylmorpholino)-2-(2-fluoromethylbenzimidazol-1-yl)-6-morpholinopyrimidine]
melting point: 163 to 165 °C
GI50 (MCF-7 cells): 200 nM

Now from value to compound, other results behind:

melting point: 141 to 145 °C
GI50 (MCF-7 cells): 240 nM
Compound: C[C@@H]1OCCN(c2cc(N3CCOCC3)nc(-n3c(N)nc4ccccc43)n2)[C@H]1C.Cl (relative stereo) [compound 31, 2-(2-aminobenzimidazol-1-yl)-4-(trans-2,3-dimethylmorpholino)-6-morpholinopyrimidine hydrochloride]
judgment (T/C (%) of relative tumor growth rate, last day) (Human colon cancer WiDr): + (Cases where T/C (%) of the last day was less than 50% and U-assay of Mann-Whitney revealed significant difference with one-sided risk rate of 1% were judged to be effective (+))

melting point: 135 to 138 °C
GI50 (MCF-7 cells): 160 nM
Compound: C[C@@H]1OCCN(c2nc(N3CCOCC3)nc(-n3c(C(F)F)nc4ccccc43)n2)[C@H]1C (relative stereo) [compound 14, 2-(2-difluoromethylbenzimidazol-1-yl)-4-(trans-2,3-dimethylmorpholino)-6-morpholino-1,3,5-triazine]
judgment (T/C (%) of relative tumor growth rate, last day) (Human colon cancer WiDr): + (Cases where T/C (%) of the last day was less than 50% and U-assay of Mann-Whitney revealed significant difference with one-sided risk rate of 1% were judged to be effective (+))

melting point: 113 to 116 °C
GI50 (MCF-7 cells): 320 nM
Compound: C[C@H]1COC(C)(C)CN1c1cc(N2CCOCC2)nc(-n2c(C(F)F)nc3ccccc32)n1 [compound 8, 2-(2-difluoromethylbenzimidazol-1-yl)-4-morpholino-6-[2,2,5(S)-trimethylmorpholino]pyrimidine]

melting point: 141 to 143 °C
GI50 (MCF-7 cells): 200 nM
Compound: C[C@@H]1OCCN(c2cc(N3CCCCC3)nc(-n3c(CO)nc4ccccc43)n2)[C@@H]1C (relative stereo) [compound 11, 4-(cis-2,3-dimethylmorpholino)-2-(2-hydroxymethylbenzimidazol-1-yl)-6-piperidinopyrimidine]

melting point: 226 to 227 °C (dec.)
GI50 (MCF-7 cells): 180 nM
Compound: CC1(C)CN(c2nc(N3CCOCC3)nc(-n3c(C(F)F)nc4ccc(N)cc43)n2)CCO1 [compound 32, 2-(6-amino-2-difluoromethylbenzimidazol-1-yl)-4-(2,2-dimethylmorpholino)-6-morpholino-1,3,5-triazine]
judgment (T/C (%) of relative tumor growth rate, last day) (Human colon cancer WiDr): + (Cases where T/C (%) of the last day was less than 50% and U-assay of Mann-Whitney revealed significant difference with one-sided risk rate of 1% were judged to be effective (+))

melting point: 104 to 108 °C
GI50 (MCF-7 cells): 390 nM
Compound: C[C@@H]1OCCN(c2cc(N3CCCC3CO)nc(-n3c(CO)nc4ccccc43)n2)[C@@H]1C (relative stereo) [compound 12, 4-(cis-2,3-dimethylmorpholino)-2-(2-hydroxymethylbenzimidazol-1-yl)-6-(2-hydroxymethylpyrrolidin-1-yl)pyrimidine]

melting point: 167 to 169 °C
GI50 (MCF-7 cells): 110 nM
Compound: C[C@@H]1OCCN(c2cc(N3CCOCC3)nc(-n3c(C(F)F)nc4ccccc43)n2)[C@@H]1C (relative stereo) [compound 1, 2-(2-difluoromethylbenzimidazol-1-yl)-4-(cis-2,3-dimethylmorpholino)-6-morpholinopyrimidine]
